In patent EP0292170A2, “Enzyme immunoassay” (Bayer Corporation, priority 1987, dated 1988):

Tested on: antibody to phenytoin
Assay: Immunoreactivity: conjugate activity in the phosphorylase kinase reaction mixture in the presence of monoclonal antibody to phenytoin
Type: biochemical
Conditions: same reaction mixture, antibody added

## Nc1ncnc2c1ncn2[C@@H]1O[C@H](COP(=O)(O)OP(=O)(O)OP(=O)(O)O)[C@@H](O)[C@H]1O [ATP, adenosine triphosphate]
  inhibition of activity by antibody: No inhibition
